Experimental data from patent US20130165641A1, “6,11-BRIDGED BIARYL MACROLIDES” (Enanta Pharmaceuticals, Inc., priority 2007, published 2013).
Converted amounts (≈) assume the structure as drawn.

Tested on: MRSA
Assay: MIC by micro-dilution method, MRSA isolates
Format: cell-based, Staphylococcus aureus
Conditions: compounds of Formula XVI; for MIC MRSA 7662: MRSA isolate 7662; for MIC MRSA 33591: MRSA isolate 33591
Procedure: Susceptibility tests can be used to quantitatively measure the in vitro activity of an antimicrobial agent against a given bacterial isolate. Compounds are tested for in vitro antibacterial activity by a micro-dilution method. Minimal Inhibitory Concentration (MIC) is determined in 96 well microtiter plates utilizing the appropriate broth medium for the observed bacterial isolates. […] The diluted compounds (2 μl/well) are then transferred into sterile, uninoculated medium (0.2 mL) by use of a 96 fixed tip-pipetting station. The inoculum for each bacterial strain is standardized to approximately 5×10^5 CFU/mL by optical comparison to a 0.5 McFarland turbidity standard. The plates are inoculated with 10 μl/well of adjusted bacterial inoculum. The 96 well plates are covered and incubated at 35+/−2° C. for 24 hours in ambient air environment. Following incubation, plate wells are visually examined by Optical Density measurement for the presence of growth (turbidity). The lowest concentration of an antimicrobial agent at which no visible growth occurs is defined as the MIC.
All in vitro testing follows the guidelines described in the Approved Standards M7-A7 protocol, published by the Clinical Laboratory Standards Institute (CLSI).

CCC(=O)N=C1[C@H](C)C[C@@]2(C)OC/C(=N/OCc3ccc(-c4nsc(N)n4)cn3)CO[C@H]([C@H]1C)[C@](C)(O)[C@@H](CC)OC(=O)[C@@](C)(F)C(=O)[C@H](C)[C@H]2O[C@@H]1O[C@H](C)C[C@H](N(C)C)[C@H]1O [Example 123]
MIC MRSA 7662: 4 µg/mL (≈ 4.41 µM)
MIC MRSA 33591: 4 µg/mL (≈ 4.41 µM)

CCC1OC(=O)C(C)(F)C(=O)C(C)C(OC2OC(C)CC(N(C)C)C2O)C2(C)CC(C)C(=NC(=O)C(C)C)C(C)C(OCC(=NOCc3ccc(-c4cccc(N)n4)cn3)CO2)C1(C)O (centres unmarked) [Example 80]
MIC MRSA 7662: 4 µg/mL (≈ 4.38 µM)
MIC MRSA 33591: 4 µg/mL (≈ 4.38 µM)

CC[C@H]1OC(=O)[C@@](C)(F)C(=O)[C@H](C)[C@@H](O[C@@H]2O[C@H](C)C[C@H](N(C)C)[C@H]2O)[C@@]2(C)C[C@@H](C)C(=NC(C)=O)[C@H](C)[C@@H](OC/C(=N\OCc3ccc(-c4nccc(N)n4)cn3)CO2)[C@]1(C)O [Example 102]
MIC MRSA 7662: 8 µg/mL (≈ 9.03 µM)
MIC MRSA 33591: 8 µg/mL (≈ 9.03 µM)

CC[C@H]1OC(=O)[C@@](C)(F)C(=O)[C@H](C)[C@@H](O[C@@H]2O[C@H](C)C[C@H](N(C)C)[C@H]2O)[C@@]2(C)C[C@@H](C)C(=NC(C)=O)[C@H](C)[C@@H](OC/C(=N\OCc3cnc(-c4cccc(N)n4)cn3)CO2)[C@]1(C)O [Example 103]
MIC MRSA 7662: 8 µg/mL (≈ 9.03 µM)
MIC MRSA 33591: 8 µg/mL (≈ 9.03 µM)

CC[C@H]1OC(=O)[C@@](C)(F)C(=O)[C@H](C)[C@@H](O[C@@H]2O[C@H](C)C[C@H](N(C)C)[C@H]2O)[C@@]2(C)C[C@@H](C)C(=NC(=O)C(C)C)[C@H](C)[C@@H](OC/C(=N\OCc3ccc(-c4nc(N)cs4)cn3)CO2)[C@]1(C)O [Example 109]
MIC MRSA 7662: 2 µg/mL (≈ 2.18 µM)
MIC MRSA 33591: 2 µg/mL (≈ 2.18 µM)

CCC(=O)N=C1[C@H](C)C[C@@]2(C)OC/C(=N/OCc3cnc(-c4nc(N)cs4)cn3)CO[C@H]([C@H]1C)[C@](C)(O)[C@@H](CC)OC(=O)[C@@](C)(F)C(=O)[C@H](C)[C@H]2O[C@@H]1O[C@H](C)C[C@H](N(C)C)[C@H]1O [Example 133]
MIC MRSA 7662: 2.00 µg/mL (≈ 2.21 µM)
MIC MRSA 33591: 4.00 µg/mL (≈ 4.41 µM)

CCC(=O)N=C1[C@H](C)C[C@@]2(C)OC/C(=N/OCc3ccc(-c4nsc(N)n4)nc3)CO[C@H]([C@H]1C)[C@](C)(O)[C@@H](CC)OC(=O)[C@@](C)(F)C(=O)[C@H](C)[C@H]2O[C@@H]1O[C@H](C)C[C@H](N(C)C)[C@H]1O [Example 129]
MIC MRSA 7662: 4.00 µg/mL (≈ 4.41 µM)
MIC MRSA 33591: 8.00 µg/mL (≈ 8.83 µM)

CCC1OC(=O)C(C)(F)C(=O)C(C)C(OC2OC(C)CC(N(C)C)C2O)C2(C)CC(C)C(=NC(C)=O)C(C)C(OCC(=NOCc3ccc(-n4ccc(N)n4)cn3)CO2)C1(C)O (centres unmarked) [Example 82]
MIC MRSA 7662: 4 µg/mL (≈ 4.58 µM)
MIC MRSA 33591: 8 µg/mL (≈ 9.15 µM)

CC[C@H]1OC(=O)[C@@](C)(F)C(=O)[C@H](C)[C@@H](O[C@@H]2O[C@H](C)C[C@H](N(C)C)[C@H]2O)[C@@]2(C)C[C@@H](C)C(=NC(=O)C(C)C)[C@H](C)[C@@H](OC/C(=N\OCc3ccc(-n4ccc(N)n4)cc3Cl)CO2)[C@]1(C)O [Example 116]
MIC MRSA 7662: 4 µg/mL (≈ 4.28 µM)
MIC MRSA 33591: 4 µg/mL (≈ 4.28 µM)

CCC1OC(=O)C(C)(F)C(=O)C(C)C(OC2OC(C)CC(N(C)C)C2O)C2(C)CC(C)C(=NC(=O)C3CC3)C(C)C(OCC(=NOCc3ccc(-n4ccc(N)n4)cn3)CO2)C1(C)O (centres unmarked) [Example 94]
MIC MRSA 7662: 8 µg/mL (≈ 8.89 µM)
MIC MRSA 33591: 8 µg/mL (≈ 8.89 µM)

CC[C@H]1OC(=O)[C@@](C)(F)C(=O)[C@H](C)[C@@H](O[C@@H]2O[C@H](C)C[C@H](N(C)C)[C@H]2O)[C@@]2(C)C[C@@H](C)C(=NC(C)=O)[C@H](C)[C@@H](OC/C(=N\OCc3ccc(-c4nsc(N)n4)cn3)CO2)[C@]1(C)O [Example 107]
MIC MRSA 7662: 8 µg/mL (≈ 8.97 µM)
MIC MRSA 33591: 16 µg/mL (≈ 17.9 µM)

CC[C@H]1OC(=O)[C@@](C)(F)C(=O)[C@H](C)[C@@H](O[C@@H]2O[C@H](C)C[C@H](N(C)C)[C@H]2O)[C@@]2(C)C[C@@H](C)C(=NC(=O)OC)[C@H](C)[C@@H](OC/C(=N\OCc3ccc(-n4ccc(N)n4)cn3)CO2)[C@]1(C)O [Example 124]
MIC MRSA 7662: 4.00 µg/mL (≈ 4.49 µM)
MIC MRSA 33591: 8.00 µg/mL (≈ 8.99 µM)

CC[C@H]1OC(=O)[C@@](C)(F)C(=O)[C@H](C)[C@@H](O[C@@H]2O[C@H](C)C[C@H](N(C)C)[C@H]2O)[C@@]2(C)C[C@@H](C)C(=NC(=O)C(C)C)[C@H](C)[C@@H](OC/C(=N\OCc3ncc(-c4cccc(N)n4)cn3)CO2)[C@]1(C)O [Example 100]
MIC MRSA 7662: 8 µg/mL (≈ 8.75 µM)
MIC MRSA 33591: 8 µg/mL (≈ 8.75 µM)

CC[C@H]1OC(=O)[C@@](C)(F)C(=O)[C@H](C)[C@@H](O[C@@H]2O[C@H](C)C[C@H](N(C)C)[C@H]2O)[C@@]2(C)C[C@@H](C)C(=NC(C)=O)[C@H](C)[C@@H](OC/C(=N\OCc3ccc(-c4csc(N)n4)cn3)CO2)[C@]1(C)O [Example 104]
MIC MRSA 7662: 8 µg/mL (≈ 8.98 µM)
MIC MRSA 33591: 8 µg/mL (≈ 8.98 µM)

CCC(=O)N=C1C(C)CC2(C)OCC(=NOCc3ccc(-n4ccc(N)n4)nc3)COC(C1C)C(C)(O)C(CC)OC(=O)C(C)(F)C(=O)C(C)C2OC1OC(C)CC(N(C)C)C1O (centres unmarked) [Example 79]
MIC MRSA 7662: 2 µg/mL (≈ 2.25 µM)
MIC MRSA 33591: 4 µg/mL (≈ 4.5 µM)

[2H]C([2H])([2H])C([2H])([2H])C(=O)N=C1[C@H](C)C[C@@]2(C)OC/C(=N/OCc3ccc(-c4nc(N)cs4)cn3)CO[C@H]([C@H]1C)[C@](C)(O)[C@@H](CC)OC(=O)[C@@](C)(F)C(=O)[C@H](C)[C@H]2O[C@@H]1O[C@H](C)C[C@H](N(C)C)[C@H]1O [Example 135]
MIC MRSA 7662: 2.00 µg/mL (≈ 2.2 µM)
MIC MRSA 33591: 2.00 µg/mL (≈ 2.2 µM)

CC[C@H]1OC(=O)[C@@](C)(F)C(=O)[C@H](C)[C@@H](O[C@@H]2O[C@H](C)C[C@H](N(C)C)[C@H]2O)[C@@]2(C)C[C@@H](C)C(=NC(=O)C3CC3)[C@H](C)[C@@H](OC/C(=N\OCc3ncc(-c4cccc(N)n4)s3)CO2)[C@]1(C)O [Example 112]
MIC MRSA 7662: 4 µg/mL (≈ 4.36 µM)
MIC MRSA 33591: 8 µg/mL (≈ 8.72 µM)

CC[C@H]1OC(=O)[C@@](C)(F)C(=O)[C@H](C)[C@@H](O[C@@H]2O[C@H](C)C[C@H](N(C)C)[C@H]2O)[C@@]2(C)C[C@@H](C)C(=NC(=O)C(C)C)[C@H](C)[C@@H](OC/C(=N\OCc3csc(-c4cccc(N)n4)n3)CO2)[C@]1(C)O [Example 137]
MIC MRSA 7662: 1.00 µg/mL (≈ 1.09 µM)
MIC MRSA 33591: 2.00 µg/mL (≈ 2.18 µM)

CCC1OC(=O)C(C)(F)C(=O)C(C)C(OC2OC(C)CC(N(C)C)C2O)C2(C)CC(C)C(=NC(=O)C3CC3)C(C)C(OCC(=NOCc3ccc(-c4cccc(N)n4)cn3)CO2)C1(C)O (centres unmarked) [Example 77]
MIC MRSA 7662: 8 µg/mL (≈ 8.78 µM)
MIC MRSA 33591: 8 µg/mL (≈ 8.78 µM)

CCC(=O)N=C1[C@H](C)C[C@@]2(C)OC/C(=N/OCc3ccc(-c4nc(N)cs4)cc3)CO[C@H]([C@H]1C)[C@](C)(O)[C@@H](CC)OC(=O)[C@@](C)(F)C(=O)[C@H](C)[C@H]2O[C@@H]1O[C@H](C)C[C@H](N(C)C)[C@H]1O [Example 120]
MIC MRSA 7662: 4 µg/mL (≈ 4.42 µM)
MIC MRSA 33591: 4 µg/mL (≈ 4.42 µM)

CC[C@H]1OC(=O)[C@@](C)(F)C(=O)[C@H](C)[C@@H](O[C@@H]2O[C@H](C)C[C@H](N(C)C)[C@H]2O)[C@@]2(C)C[C@@H](C)C(=NC(C)=O)[C@H](C)[C@@H](OC/C(=N\OCc3coc(-c4cccc(N)n4)n3)CO2)[C@]1(C)O [Example 126]
MIC MRSA 7662: 4 µg/mL (≈ 4.57 µM)
MIC MRSA 33591: 8 µg/mL (≈ 9.14 µM)

CCC(=O)N=C1[C@H](C)C[C@@]2(C)OC/C(=N/OCc3ncc(-c4cccc(N)n4)o3)CO[C@H]([C@H]1C)[C@](C)(O)[C@@H](CC)OC(=O)[C@@](C)(F)C(=O)[C@H](C)[C@H]2O[C@@H]1O[C@H](C)C[C@H](N(C)C)[C@H]1O [Example 134]
MIC MRSA 7662: 4.00 µg/mL (≈ 4.5 µM)
MIC MRSA 33591: 8.00 µg/mL (≈ 9 µM)
